This note sets out measurements from US9976141B2, “Compositions and methods for inhibiting gene expression of Hif2alpha” (Arrowhead Madison Inc., priority 2015, dated 2018).

Strand notation (5' to 3'): a small letter for the sugar, then the base; units joined by * are phosphorothioate-linked, units joined directly phosphodiester-linked; [ ] holds rarer units or linkages, { } end groups; capitals alone tell only the bases. {Alk-C6-SMPT-C6} = Alk-C6-SMPT-C6 linker modification, as named by the publication; [invdT] = inverted (3'-3') thymidine; e = 2'-O-(2-methoxyethyl) (MOE); m = 2'-O-methyl; f = 2'-fluoro

This data set has as its system human (tumor) Hif2α (EPAS1) mRNA. Briefly: Hif2α knockdown in orthotopic RCC tumor bearing mice, single injection of RNAi trigger-delivery polymer conjugate, RT-qPCR (Table 7). The class given is in vivo. The note with it: single tail vein injection, relative to isotonic glucose. As for the experimental part: A pCR3.1 expression vector expressing the reporter gene secreted alkaline phosphatase (SEAP) under the CMV promoter was prepared by directional cloning of the SEAP coding sequence PCR amplified from Clontech's pSEAP2-basic vector. Convenient restriction sites were added onto primers used to amplify the SEAP coding sequence for cloning into the pCR3.1 vector (Invitrogen). The resultant construct pCR3-SEAP was used to create a SEAP-expressing A498 ccRCC cell line. Briefly, pCR3-SEAP plasmid was transfected into A498 ccRCC cells by electroporation following manufacturer's recommendation. Stable transfectants were selected by G418 resistance. Selected A498-SEAP clones were evaluated for SEAP expression and integration stability.
Female athymic nude mice were anesthetized with ˜3% isoflourane and placed in the right lateral decubitus position. A small, 0.5-1 cm, longitudinally abdominal incision in the left flank was made. Using a moist cotton swab, the left kidney was lifted out of the peritoneum and gently stabilized. Just before injection, a 1.0 ml syringe was filled with the cell/Matrigel mixture and a 27 gauge needle catheter was attached to the syringe tip. The filled syringe was then attached to a syringe pump (Harvard Apparatus, model PHD2000) and primed to remove air. The tip of a 27-gauge needle catheter attached to a syringe was inserted just below the renal capsule near the caudal pole and the tip of the needle was then carefully advanced cranially along the capsule 3-4 mm. A 10 μl aliquot of 2:1 (vol:vol) cell/matrigel mixture containing about 300,000 cells was slowly injected into the kidney parenchyma using a syringe pump. The needle was left in the kidney for 15-20 seconds to ensure the injection was complete. The needle was then removed from the kidney and a cotton swab was placed over the injection site for 30 seconds to prevent leakage of the cells or bleeding. The kidney was then gently placed back into the abdomen and the abdominal wall was closed. Serum was collected every 7-14 days after implantation to monitor tumor growth using a commercial SEAP assay kit. For most studies, tumor mice were used 5-6 weeks after implantation, when tumor measurements were typically around 4-8 mm.
RGD targeted HiF2α-RNAi trigger delivery conjugates. Delivery polymers were modified using RGD-PEG-HyNic, RGD-PEG-ACit-PNP, or RDG-PEG-FCitFP-TFP and PEG-dipeptide modifying agents. The indicated amount of polymer 126 or 100A polymer was modified with 8×PEG12-ACit-PABC-PNP/0.5× aldehyde-PEG24-FCit-PABC-PNP (with RGD mimic #1-PEG-HyNic using protocol #1) and the indicated amount of the indicated Hif2α RNAi trigger. Polymer 064 was modified according to protocol 7. Kidney RCC tumor-bearing mice were generated as described and treated with a single tail vein injection of isotonic glucose (G1) or the indicated Hif2α RNAi trigger-delivery polymer conjugate. Mice were euthanized at the indicated time after injection and total RNA was prepared from kidney tumor using Trizol reagent following manufacturer's recommendation. Relative HiF2α mRNA levels were determined by RT-qPCR as described below and compared to mice treated with delivery buffer (isotonic glucose) only.
In preparation for quantitative PCR, total RNA was isolated from tissue samples homogenized in TriReagent (Molecular Research Center, Cincinnati, Ohio) following the manufacturer's protocol. Approximately 500 ng RNA was reverse-transcribed using the High Capacity cDNA Reverse Transcription Kit (Life Technologies). For human (tumor) Hif2α (EPAS1) expression, pre-manufactured TaqMan gene expression assays for human Hif2α (Catalog #4331182) and CycA (PPIA) Catalog #: 4326316E) were used in biplex reactions in triplicate using TaqMan Gene Expression Master Mix (Life Technologies) or VeriQuest Probe Master Mix (Affymetrix). […]
On the technique in general: Quantitative PCR measures a nucleic acid by following its amplification.

[1] abbreviates: RNAi trigger 80 μg, polymer 126 400 μg.
Setting [2] is: RNAi trigger 50 μg, polymer 064 125 μg.

As to “AD01292 (antisense TUUCAUGAAAUCGUUACGUUGGC; sense CAACGUAACGAUUUCAUGAAA; Hif2alpha RNAi agent antisense strand; modified_base 2,4,6,8,10,14,16,18,20 /mod_base = “2′-deoxy-2′-fluoro corresponding nucleoside”; modified_base 3,5,7,9,11,12,13,15,17,19,21,22,23 /mod_base = “2′-O-methyl corresponding nucleoside”; modified_base 2,3,22,23 /mod_base = “5′-phosphorothioate corresponding nucleotide”; Hif2alpha RNAi agent sense strand; modified_base 3,5,7,9,10,11,13,15,17,19,21 /mod_base = “2′-deoxy-2′-fluoro corresponding nucleoside”; modified_base 2,4,6,8,12,14,16,18,20 /mod_base = “2′-O-methyl corresponding nucleoside”; modified_base 1 /mod_base = “2′-3′ seco correspondin)”, the “Relative Expression day 4 (Hif2α mRNA in kidney tumor)” value under setting [1] was 0.27. Still for that read-out and setting: for “AD01022 (antisense TGUAAAACAAUUGUGUACUTT; sense AGUACACAAUUGUUUUACAT; Hif2alpha RNAi agent antisense strand; modified_base 2,4,6,8,10,12,14,16,18 /mod_base = “2′-deoxy-2′-fluoro corresponding nucleoside”; modified_base 3,5,7,9,11,13,15,17,19 /mod_base = “2′-O-methyl corresponding nucleoside”; modified_base 21 /mod_base = “5′-phosphorothioate corresponding nucleotide”; Hif2alpha RNAi agent sense strand; modified_base 1,3,5,7,9,11,13,15,17,19 /mod_base = “2′-deoxy-2′-fluoro corresponding nucleoside”; modified_base 2,4,6,8,10,12,14,16,18 /mod_base = “2′-O-methyl corresponding nucleoside”; modified_base 20 /mod_base = “3′-3′-linked nucleotide”; modified_base 1 /mo)” the value was 0.53.

Take “AD03261 (antisense mA*fU*mUmCmAmUmGfAmAfAmUmCmGfUmUmAmCmGmU*mU*mG; sense ACGUAACGAUUUCAUGAAT; siRNA; sense: sugars from the 5' end e2 m4 f3 m8 e2, [invdT] at 3' end, linkages s1 o18 (s phosphorothioate, o phosphodiester), 5' {Alk-C6-SMPT-C6}, methylation of C not given here; further chemistry not fully specified)”: the “Relative Expression day 4 (Hif2α mRNA in kidney tumor)” value under setting [2] was 0.177. On to “AD01658 (antisense TUUCAUGAAAUCGUUACGUTT; sense ACGUAACGAUUUCAUGAAA; Hif2alpha RNAi agent antisense strand; modified_base 2,4,6,8,10,12,14,15,18 /mod_base = “2′-deoxy-2′-fluoro corresponding nucleoside”; modified_base 3,5,7,9,11,13,16,17,19 /mod_base = “2′-O-methyl corresponding nucleoside”; modified_base 2,3,21 /mod_base = “5′-phosphorothioate corresponding nucleotide”; Hif2alpha RNAi agent sense strand; modified_base 1,3,4,7,9,11,13,15,17,19 /mod_base = “2′-deoxy-2′-fluoro corresponding nucleoside”; modified_base 2,5,6,8,10,12,14,16,18 /mod_base = “2′-O-methyl corresponding nucleoside”; modified_base 2 /mod_base = “5′-phosphorothioate corresponding nucleoti)”, for which the “Relative Expression day 4 (Hif2α mRNA in kidney tumor)” value (RNAi trigger 100 μg, polymer 100A 250 μg) was 0.138.

As for “AD01406 (antisense TUUCAUGAAAUCGUUACGUCGGCUAU; sense UAUAUCGACGUAACGAUUUCAUGAAA; Hif2alpha RNAi agent antisense strand; modified_base 25 modified base = “2′-hydroxy corresponding nucleoside”; modified_base 2,4,6,10,12,14,16,18,20 /mod_base = “2′-deoxy-2′-fluoro corresponding nucleoside”; modified_base 3,5,7,9,11,13,15,17,19,21,22,23,24,26 /mod_base = “2′-O-methyl corresponding nucleoside”; modified_base 8 /mod_base = “2′-3′ seco corresponding nucleotide”; modified_base 2,24 /m; Hif2alpha RNAi agent sense strand; modified_base 2,4 modified base = “2′-hydroxy corresponding nucleoside”; modified_base 6,8,10,12,14,16,18,20,22,24,26 /mod_base = “2′-deoxy-2′-fluoro correspondi)”, the “Relative Expression day 4 (Hif2α mRNA in kidney tumor)” value (RNAi trigger 150 μg, polymer 100A 300 μg) is 0.45. Consider “AD02875 (antisense AUUCAUGAAAUCGUUACGUUG; sense UAUACGUAACGAUUUCAUGAAUT; Hif2alpha RNAi agent antisense strand; modified_base 2,4,6,8,10,14,16,18 /mod_base = “2′-deoxy-2′-fluoro corresponding nucleoside”; modified_base 1,3,5,7,9,11,12,13,15,17,19,20,21 /mod_base = “2′-O-methyl corresponding nucleoside”; modified_base 2,3,20,21 /mod_base = “5′-phosphorothioate corresponding nucleotide”; Hif2alpha RNAi agent sense strand; modified_base 2 modified base = “2′-hydroxy corresponding nucleoside”; modified_base 10,11,12,16 /mod_base = “2′-deoxy-2′-fluoro corresponding nucleoside”; modified_base 1,3,4,5,6,7,8,9,13,14,15,17,18,19,20,21,22 /mod_base = “2′-O-methyl correspon)”, for which, under setting [2], the “Relative Expression day 4 (Hif2α mRNA in kidney tumor)” value worked out at 0.101. As to “AD01256 (antisense TUUCAUGAAAUCGUUACGUTT; sense ACGUAACGAUUUCAUGAAAT; Hif2alpha RNAi agent antisense strand; modified_base 2,4,6,10,12,14,16,18 /mod_base = “2′-deoxy-2′-fluoro corresponding nucleoside”; modified_base 3,5,7,9,11,13,15,17,19 /mod_base = “2′-O-methyl corresponding nucleoside”; modified_base 8 /mod_base = “2′-3′ seco corresponding nucleotide”; modified_base 21 /mod_base = “5′-phosphorothioate corresponding nucleotide”; Hif2alpha RNAi agent sense strand; modified_base 1,3,5,7,9,11,13,15,17,19 /mod_base = “2′-deoxy-2′-fluoro corresponding nucleoside”; modified_base 2,4,6,8,10,12,14,16,18 /mod_base = “2′-O-methyl corresponding nucleoside”; modified_b)”, under setting [1], the “Relative Expression day 4 (Hif2α mRNA in kidney tumor)” value worked out at 0.22.
